Measured values as given in patent US20260216206A1 (MEDINCELL SA, priority 2023, published 2026).

Columns and labels:
[1] = Open-label SAD and MAD study, safety and tolerability in healthy subjects and patients (Example 5); assay type: in vivo, humans; details: washout period following oral olanzapine, 4/127
Description: (§1) This study was an open-label, SAD, and MAD study to evaluate the safety, tolerability, and PK of Formulation 1 in healthy subjects and patients with a diagnosis of schizophrenia or schizoaffective disorder. Healthy subjects received subtherapeutic Formulation 1 doses of up to 105 mg and patients received therapeutic doses of up to 566 mg. […] Subjects and patients who met screening eligibility were assigned to 1 of 8 active cohorts, or the Vehicle Cohort, as detailed in Table 5.1 below.
Safety was assessed during the study by evaluating AEs, clinical laboratory test results (serum, hematology, urinalysis, and prolactin), vital signs measurements, ECG, physical examination, injection site pain, local tolerability, and leakage assessment. […]
The safety endpoints in this study included incidence of adverse events, changes from baseline in ECG parameters, selected clinical laboratory values (including prolactin) and vital signs, as well as changes in neurological and clinical symptom assessments (eg, PANSS, ESRS, AIMS, BARS, CGI-S, C-SSRS), and other safety measures that were evaluated throughout the study.

[2] = Open-label SAD and MAD study, pharmacokinetics in healthy subjects and patients (Example 5); assay type: in vivo, humans; details: oral, 2.5 to 20 mg/day for 7 days, steady-state
Description: as §1
All cohorts included assessments of safety, tolerability, and intensive PK sampling.
Except for the starting dose of 70 mg, the study followed an adaptive design in which the decision to dose-escalate with Formulation 1 was based on a review of the PK and safety data from the preceding lower dose of Formulation 1.
An extensive PK collection scheme was applied following the last oral dose to fully characterize the PK at steady-state.
In multiple-dose cohorts, the 3 doses of Formulation 1 were administered on day 1, day 29 (week 4) and day 57 (week 8), respectively.

[3] = after oral administration; cited from earlier work

Cc1cc2c(s1)Nc1ccccc1N=C2N1CCN(C)CC1 [olanzapine, 2-methyl-4-(4-methyl-1-piperazinyl)-10H-thieno[2,3-b][1,5]benzodiazepine]
Participants withdrawn due to adverse events [1]: 3.1% | Systemic exposure (Cmax, AUCt,ss) versus dose [2]: dose-proportional | Half life [3]: approximately 30 hours
